Measured values published in patent US5006342A, “Resilient transdermal drug delivery device” (Cygnus Corporation, priority 1989, dated 1991).

Legend:
[1] = in vitro release of E2 (reciprocating dissolution apparatus, USP Test Dissolution Method V, 32° C.); conditions: Example 1, 7-layer system, over 7 days
Protocol: The in vitro release of E2 from the 7-layer system was determined, using a reciprocating dissolution apparatus (USP Test Dissolution Method V) at 32° C., to be square-root-time-dependent over 7 days with a total cumulative release of 190 μg/cm^2 in 7 days (the flux was 14.66 μg/cm^2 /hr^1/2). The laminated composite was translucent and resilient, allowing the system to stretch with the stretching of skin when worn.

[2] = E2 in vitro steady-state skin flux across human cadaver skin (diffusion cells, 32° C.); format: in vitro ADME
[3] = wearing study, E2 plasma levels in postmenopausal female subjects; format: in vivo, postmenopausal female subjects (human); conditions: postmenopausal females

In vitro skin flux ([2]; Example 2, 7-layer, 14% PGML in L1): -0.15 μg/cm^2 /hr | In vitro skin flux ([2]; Example 3, 7-layer, Medifilm 810, E2 2.0% in L1 and 5.5% in L2): approximately 0.14 μg/cm^2 /hr | E2 skin flux ([2]; Example 4, 5-layer laminate (prepared similarly to Example 1)): -0.12 μg/cm^2 /hr | E2 skin flux ([2]; Example 5, 5-layer laminate (prepared similarly to Example 2)): ~ 0.15 μg/cm^2 /hr | flux from the 5-layer device ([2]; Examples 6 and 7, 5-layer device, Medifilm 810): -0.14 μg/cm^2 /hr | flux from the 5-layer device ([2]; Examples 8 and 9, 5-layer device, Medifilm 910): -0.11 μg/cm^2 /hr | constant plasma levels ([3]; Example 3, 30 cm^2 laminate, four day wearing, 5760 min): ~32 pg/mL | constant plasma concentration of E2 ([3]; Example 5, 30 cm^2 laminate, 7 day wearing): ~45 pg/mL | concentration at 96 h ([3]; human, plasma, topical or ocular, Example 3, 20 cm^2 laminate, four day wearing, read-out: constant plasma levels): ~0.025 ng/mL | concentration at 168 h ([3]; human, plasma, topical or ocular, Example 5, 20 cm^2 laminate, 7 day wearing, read-out: constant plasma concentration of E2): ~0.03 ng/mL
Compound: C[C@]12CC[C@@H]3c4ccc(O)cc4CC[C@H]3[C@@H]1CC[C@@H]2O [Example E2, estradiol]
in vitro release flux of E2 (square-root-time) [1]: 14.66 μg/cm^2 /hr^1/2 | time dependence of in vitro release of E2 [1]: square-root-time-dependent
